Data: ChEMBL document CHEMBL1149078, “1,3,4-Oxadiazoline derivatives as novel potential inhibitors targeting chitin biosynthesis: design, synthesis and biological evaluation” (Bioorg Med Chem Lett, 2009)

Columns and labels:
Saccharomyces cerevisiae = experiment: Inhibition of yeast chitin synthase at 250 uM
[1] = Inhibition of yeast chitin synthase; design: species or system Saccharomyces cerevisiae

inhibition (Saccharomyces cerevisiae) | IC50 [1] | SMILES
69% |  | CCCCC1(CCCC)OC(c2ccc(Cl)cc2)=NN1C(C)=O
68% |  | CCCCC1(CCCC)OC(c2cc(C)cc(C)c2)=NN1C(C)=O
91% | 7.93 µM | CCCCC1(CCCC)OC(c2ccccc2Cl)=NN1C(C)=O
86% | 5.6 µM | CCCCC1(CCCC)OC(c2ccc(Cl)cc2Cl)=NN1C(=O)NC(=O)c1ccccc1Cl
